# Data as given in patent US8552035B2, “Phenanthrenone compounds, compositions and methods” (Pfizer Inc., priority 2008, dated 2013).
# Legend:
# [1] = test system: IL-1β; experiment: LPS-induced human whole blood, IL-1β release; type: cell-based; details: for inhibition at 0.00137174 µM: 1.371742 nM; for inhibition at 0.00411523 µM: 4.115226 nM; for inhibition at 0.0123457 µM: 12.34568 nM; for inhibition at 0.037037 µM: 37.03704 nM; for inhibition at 0.111111 µM: 111.1111 nM; for inhibition at 0.333333 µM: 333.3333 nM; for inhibition at 1 µM: 1000 nM
# Procedure: (§1) Venous blood from human donors was collected as 10 ml aliquots in tubes containing sodium heparin (BD Vacutainer from Becton Dickinson and Company, Franklin Lakes, N.Y.). Blood was added to sterile polystyrene round bottom 96-well tissue culture plates (Corning Costar) at 180 Blood was placed in a humidified 37 C incubator with 5% CO2 while compounds were prepared (nearly 60 minutes).
# (§2) Compounds were prepared from 10 mM stock solutions in dimethylsulfoxide (DMSO, Sigma-Aldrich). Stock compound was diluted in DMSO to give appropriate starting concentration then diluted serially 1/3 in DMSO (i.e. 15 μl compound+30 μl DMSO), followed by diluting each serial dilution 1/167 into vehicle solution (2% DMSO in phosphate buffered saline (Dulbecco's Phosphate Buffered Saline without calcium chloride without magnesium chloride, Invitrogen Corporation, Carlsbad Calif.)). Compound or vehicle was added to blood in 10 μl aliquots as triplicates, omitting the outside wells to minimize possible edge effects. The final highest concentration of each compound in the assay ranged from 3 to 0.3 μM. Final DMSO concentration in the assay was 0.1%. The plate containing the samples was gently vortexed to mix and replaced in the incubator. LPS stock (E. coli serotype 0111:B4, Sigma-Aldrich), stored in aliquots of 100 μg/ml in RPMI at −20° C., was diluted […] in RPMI to make a working stock solution. After 60 minutes of incubation, 10 μl of the prepared LPS working stock was added to the blood to a final concentration of 100 ng/ml. Wells to be used as negative control received RPMI media with no LPS. The plate was again gently vortexed and the plates incubated overnight for 22 hours. Following incubation, the blood was centrifuged at 1500×g for 5 minutes and the plasma removed to either freeze at −20° C. or assay for cytokine release.
# (§3) IL-1β, IFNγ and TNFα protein levels were measured using Meso Scale assay kits (Meso Scale Discovery, Gaithersburg, Md., U.S.A.). Reagents were allowed to come to room temperature. Meso Scale plates were blocked with 150 μl of Meso Scale Block B diluent, gently shaking at room temperature for 60 minutes. Plates were washed 3× with wash buffer (PBS, Invitrogen Corporation, with 0.05% Tween-20, Sigma-Aldrich). Calibrators for standard curves were prepared in human plasma/serum assay diluent as a 1/5 serial dilution to achieve final concentrations ranging from 50000 pg/ml to 3.2 pg/ml. Samples were added at 10 to 20 μl/well and calibrators were added at 20 μl/well then incubated at room temperature with gentle shaking for 2 hours. Plates were again washed 3× with wash buffer. Detection antibody was diluted in human plasma/serum antibody diluent to 1 μg/ml and added to the plate at 20 μl/well. Plates were incubated as before for 2 hours and washed again. Read Buffer T (4×) was diluted 1:1 with mqH20 to 2× concentration and 150 μl added to each well. Plates were read on the SECTOR Imager 6000 (Meso Scale Discovery) to generate raw signal values.
# (§4) Individual sample signal values were compared to positive and negative controls (vehicle treated blood with LPS and vehicle treated blood without LPS, respectively) to generate % inhibition. Triplicate values were averaged for each donor. The values for three or four donors were averaged and graphed using 4-parameter fit curves in the LabStats plug-in for the Microsoft Excel application.
# [2] = test system: TNFα; experiment: LPS-induced human whole blood, TNFα release; type: cell-based; details: for inhibition at 0.00137174 µM: 1.371742 nM; for inhibition at 0.00411523 µM: 4.115226 nM; for inhibition at 0.0123457 µM: 12.34568 nM; for inhibition at 0.037037 µM: 37.03704 nM; for inhibition at 0.111111 µM: 111.1111 nM; for inhibition at 0.333333 µM: 333.3333 nM; for inhibition at 1 µM: 1000 nM
# Procedure: as §1, §2, §3, §4
# [3] = test system: IFNγ; experiment: LPS-induced human whole blood, IFNγ release; type: cell-based; details: for inhibition at 0.00137174 µM: 1.371742 nM; for inhibition at 0.00411523 µM: 4.115226 nM; for inhibition at 0.0123457 µM: 12.34568 nM; for inhibition at 0.037037 µM: 37.03704 nM; for inhibition at 0.111111 µM: 111.1111 nM; for inhibition at 0.333333 µM: 333.3333 nM; for inhibition at 1 µM: 1000 nM
# Procedure: as §1, §2, §3, §4
# [4] = test system: serum insulin; experiment: 28-day mouse side-effect model, serum insulin; type: in vivo; details: oral gavage 28 days
# Procedure: (§5) 10-12 week old female Swiss Webster mice (Taconic, Germantown, N.Y., U.S.A.) weighing 27-29 grams are used in accordance with the guidelines of the Institutional Animal Care and Use Committee and in accordance with NIH guidelines on laboratory animal welfare. Mice are acclimated to the Pfizer animal facility for 3-7 days prior to being placed on study. Prednisolone and DAGR compounds are administered by oral gavage for a total of 28 days. Each treatment group generally contains 8-10 mice. To establish a dosing regimen for the studies, a pilot pharmacodynamic time course experiment is conducted to quantify TNFa repression after a single ED80 dose (determined from the acute LPS endotoxemia mouse model). […] DAGR compounds vary in their required frequency of doses.
# (§6) Body weights are measured on the first and last day of each experiment. Blood samples are obtained after ˜3 weeks of dosing for steady-state pharmacokinetic analysis. To assess compound effects on LPS-induced TNF-a, all mice receive an intraperitoneal injection of LPS (Salmonella Typhosa, Sigma, St. Louis, L-7895) 2.5 hr after the last dose on day 28. Mice are sacrificed 90 min. after LPS administration. Serum samples are assayed for osteocalcin and TNFa using the Linco multiplex assay (St. Charles, Mo.) and Luminex 100 (Austin, Tex.). Samples are diluted 1:20 and the assay is run according to manufacturer's instructions. An osteocalcin standard is purchased separately from Biomedical Technologies Incorporated (Stoughton, Mass.). Serum insulin is measured to assess compound effects on insulin resistance. Insulin was measured using the UltraSensitive Mouse EIA kit from Alpco Diagnostics (Salem, N.H.) following the manufacturer's protocol.
# (§7) ED50 and ED80 values are obtained for the various parameters using four-parameter logistic fits of data. For each experiment/dose group, outliers are detected by calculating the number of standard deviations each mouse's value was from the mean of their group and then dividing by the standard deviation of the group. The means and standard deviations used in this calculation omitted the value being examined so that, if it were an outlier, it would have no influence. If the value being examined is more than 2.5 standard deviations from the mean, it was not used in the rest of the calculations.
# (§8) Percent inhibition values are then calculated for each animal using the means of the vehicle and 10 mpk prednisone control groups. The individual mouse percent inhibition values are then fit to a four-parameter logistic model using the area under curve mean for each group. Since all four parameters are estimated and the lower plateau is not fixed at 0% and the upper plateau was not fixed at 100%, the ED50 and ED80 values are calculated by using an inverse calibration formula for a response equal to 50% or 80%. The designation “nd” means not determined.
# [5] = test system: osteocalcin; experiment: 28-day mouse side-effect model, serum osteocalcin suppression; type: in vivo; details: oral gavage 28 days
# Procedure: as §5, §6, §7, §8
# [6] = test system: LPS-induced TNFα; experiment: 28-day mouse side-effect model, LPS-induced serum TNFα suppression; type: in vivo; details: oral gavage 28 days, LPS challenge
# Procedure: as §5, §6, §7, §8
# [7] = Homo sapiens, 0.457247 nM, mean of donors
# [8] = ex vivo LPS-stimulated human whole blood, extent of inhibition, concentration not given
# [9] = Homo sapiens, 3000 nM, mean of donors
structure (smiles),measurement,setting,value
C[C@]12C=CC(=O)C=C1CC[C@@H]1[C@@H]2[C@@H](O)C[C@@]2(C)[C@H]1CC[C@]2(O)C(=O)CO [Prednisolone],inhibition at 0.000457247 µM,[1]; [7],-0.571%
same,inhibition at 0.00137174 µM,"[1]; Homo sapiens, mean of donors",-1.26%
same,inhibition at 0.00411523 µM,"[1]; Homo sapiens, mean of donors",0.84%
same,inhibition at 0.0123457 µM,"[1]; Homo sapiens, mean of donors",7.17%
same,inhibition at 0.037037 µM,"[1]; Homo sapiens, mean of donors",36.7%
same,inhibition at 0.111111 µM,"[1]; Homo sapiens, mean of donors",61.9%
same,inhibition at 0.333333 µM,"[1]; Homo sapiens, mean of donors",87.6%
same,inhibition at 1 µM,"[1]; Homo sapiens, mean of donors",91.8%
same,level of inhibition of IL-1,[1]; [8],full inhibition
same,inhibition at 0.000457247 µM,[2]; [7],2.76%
same,inhibition at 0.00137174 µM,"[2]; Homo sapiens, mean of donors",6.36%
same,inhibition at 0.00411523 µM,"[2]; Homo sapiens, mean of donors",8.95%
same,inhibition at 0.0123457 µM,"[2]; Homo sapiens, mean of donors",19.6%
same,inhibition at 0.037037 µM,"[2]; Homo sapiens, mean of donors",49.2%
same,inhibition at 0.111111 µM,"[2]; Homo sapiens, mean of donors",67.1%
same,inhibition at 0.333333 µM,"[2]; Homo sapiens, mean of donors",86.9%
same,inhibition at 1 µM,"[2]; Homo sapiens, mean of donors",90.4%
same,level of inhibition of TNF,[2]; [8],full inhibition
same,inhibition at 0.000457247 µM,[3]; [7],1.19%
same,inhibition at 0.00137174 µM,"[3]; Homo sapiens, mean of donors",9.75%
same,inhibition at 0.00411523 µM,"[3]; Homo sapiens, mean of donors",25.2%
same,inhibition at 0.0123457 µM,"[3]; Homo sapiens, mean of donors",34.7%
same,inhibition at 0.037037 µM,"[3]; Homo sapiens, mean of donors",70.7%
same,inhibition at 0.111111 µM,"[3]; Homo sapiens, mean of donors",85.2%
same,inhibition at 0.333333 µM,"[3]; Homo sapiens, mean of donors",94.8%
same,inhibition at 1 µM,"[3]; Homo sapiens, mean of donors",96.4%
same,level of inhibition of IFN,[3]; [8],full inhibition
"Cc1nc(Br)ccc1NC(=O)c1ccc2c(c1)CC[C@@H]1C[C@@](O)(c3ccccc3)[C@](C)(O)C[C@@]21Cc1ccccc1 [Comparator B, (4bR,6R,7R,8aR)-4b-benzyl-N-(6-bromo-2-methylpyridin-3-yl)-6,7-dihydroxy-6-methyl-7-phenyl-4b,5,6,7,8,8a,9,10-octahydrophenanthrene-2-carboxamide]",ED50 at 28 days,"[4]; female, Swiss Webster, read-out: Insulin (ED50 dose)",1.04 mg/kg
same,Insulin (ED80 dose),[4],7.58
same,ED50 at 28 days,"[5]; female, Swiss Webster, read-out: Osteocalcin Suppression (ED50 dose)",0.21 mg/kg
same,Osteocalcin Suppression (ED80 dose),[5],0.97
same,ED50,"[6]; 672 h, read-out: TNFα Suppression (ED50 dose)",0.083 mg/kg
same,TNFα Suppression (ED80 dose),[6],0.45
"Cc1ncccc1COc1ccc2c(c1)CC[C@@H]1C[C@@](O)(c3ccccc3)[C@@H](O)C[C@@]21Cc1ccccc1 [Comparator G, (2R,3S,4aR,10aR)-4a-Benzyl-7(2-methyulpyridin-3-ylmethoxy)-2-phenyl-1,2,3,4,4a,9,10,10a-octahydrophenanthrene-2,3 diol]",inhibition at 0.00137174 µM,"[1]; Homo sapiens, mean of donors",-0.115%
same,inhibition at 0.00411523 µM,"[1]; Homo sapiens, mean of donors",-2.64%
same,inhibition at 0.0123457 µM,"[1]; Homo sapiens, mean of donors",-7.52%
same,inhibition at 0.037037 µM,"[1]; Homo sapiens, mean of donors",-7.35%
same,inhibition at 0.111111 µM,"[1]; Homo sapiens, mean of donors",-5.37%
same,inhibition at 0.333333 µM,"[1]; Homo sapiens, mean of donors",-6.75%
same,inhibition at 1 µM,"[1]; Homo sapiens, mean of donors",-1.19%
same,inhibition at 3 µM,[1]; [9],< 20%
same,inhibition at 0.00137174 µM,"[2]; Homo sapiens, mean of donors",3.22%
same,inhibition at 0.00411523 µM,"[2]; Homo sapiens, mean of donors",-2.9%
same,inhibition at 0.0123457 µM,"[2]; Homo sapiens, mean of donors",-14%
same,inhibition at 0.037037 µM,"[2]; Homo sapiens, mean of donors",-13.9%
same,inhibition at 0.111111 µM,"[2]; Homo sapiens, mean of donors",-8.76%
same,inhibition at 0.333333 µM,"[2]; Homo sapiens, mean of donors",-13.8%
same,inhibition at 1 µM,"[2]; Homo sapiens, mean of donors",-8.47%
same,inhibition at 3 µM,[2]; [9],< 20%
same,IFNγ (% inhibition),"[3]; 3000 nM, mean of donors, 3 µM",41.3796%
same,inhibition at 0.00137174 µM,"[3]; Homo sapiens, mean of donors",16.7%
same,inhibition at 0.00411523 µM,"[3]; Homo sapiens, mean of donors",12.8%
same,inhibition at 0.0123457 µM,"[3]; Homo sapiens, mean of donors",-9.15%
same,inhibition at 0.037037 µM,"[3]; Homo sapiens, mean of donors",-2.58%
same,inhibition at 0.111111 µM,"[3]; Homo sapiens, mean of donors",2.66%
same,inhibition at 0.333333 µM,"[3]; Homo sapiens, mean of donors",2.02%
same,inhibition at 1 µM,"[3]; Homo sapiens, mean of donors",13.2%
same,inhibition at 3 µM,[3]; [9],41%
